± gives the uncertainty stated by the source.
Experiment: xn = mol fraction of the nth substance listed

CCCCCCCCCCCCCC[P+](CCCCCC)(CCCCCC)CCCCCC.c1c[n-]nn1 + CCCCCCCCCCCCCC[P+](CCCCCC)(CCCCCC)CCCCCC.O=S(=O)([N-]S(=O)(=O)C(F)(F)F)C(F)(F)F
viscosity [mPa·s], 100 kPa
Conditions | x1 = 0.098 | x1 = 0.201 | x1 = 0.3 | x1 = 0.401 | x1 = 0.5 | x1 = 0.599 | x1 = 0.7 | x1 = 0.797 | x1 = 0.901
293.15 K | 425 ± 54 | 473 ± 60 | 495 ± 63 | 465 ± 59 | 502 ± 64 | 539 ± 69 | 533 ± 69 | 547 ± 70 | 553 ± 71
298.15 K | 313 ± 39 | 348 ± 44 | 362 ± 46 | 338 ± 43 | 363 ± 46 | 390 ± 49 | 385 ± 49 | 393 ± 50 | 397 ± 50
303.15 K | 236 ± 29 | 261 ± 32 | 270 ± 34 | 251 ± 31 | 270 ± 34 | 288 ± 36 | 284 ± 35 | 289 ± 36 | 291 ± 36
308.15 K | 181 ± 22 | 200 ± 25 | 207 ± 26 | 191 ± 24 | 204 ± 25 | 218 ± 27 | 214 ± 26 | 217 ± 27 | 220 ± 27
313.15 K | 142 ± 17 | 156 ± 19 | 160 ± 20 | 148 ± 18 | 158 ± 19 | 168 ± 21 | 165 ± 20 | 167 ± 20 | 168 ± 21
318.15 K | 112 ± 14 | 124 ± 15 | 127 ± 15 | 117 ± 14 | 124 ± 15 | 132 ± 16 | 129 ± 16 | 131 ± 16 | 132 ± 16
323.15 K | 91 ± 11 | 100 ± 12 | 102 ± 12 | 94 ± 11 | 100 ± 12 | 106 ± 13 | 103 ± 12 | 104 ± 13 | 106 ± 13

CCCCCCCN + Cc1ccccc1
303.15 K, 101 kPa
Conditions | viscosity [mPa·s]
x2 = 0.1243 | 0.8161 ± 0.0069
x2 = 0.2792 | 0.7217 ± 0.0062
x2 = 0.4418 | 0.6387 ± 0.0055
x2 = 0.5561 | 0.5933 ± 0.0051
x2 = 0.5995 | 0.58 ± 0.005
x2 = 0.7025 | 0.5493 ± 0.0048
x2 = 0.7845 | 0.5305 ± 0.0046
x2 = 0.875 | 0.5139 ± 0.0045
x2 = 0.939 | 0.5173 ± 0.0045

CCC(=O)O + Cc1ccccc1N
viscosity [mPa·s], 100 kPa
Conditions | x2 = 0.0977 | x2 = 0.1983 | x2 = 0.2728 | x2 = 0.3622 | x2 = 0.4952 | x2 = 0.5997 | x2 = 0.6763 | x2 = 0.7449 | x2 = 0.8891
303.15 K | 1.2 ± 0.04 | 1.45 ± 0.05 | 1.64 ± 0.05 | 1.85 ± 0.06 | 2.16 ± 0.07 | 2.4 ± 0.08 | 2.57 ± 0.08 | 2.72 ± 0.09 | 3.03 ± 0.09
308.15 K | 1.1 ± 0.04 | 1.31 ± 0.04 | 1.47 ± 0.05 | 1.65 ± 0.05 | 1.91 ± 0.06 | 2.11 ± 0.07 | 2.25 ± 0.07 | 2.38 ± 0.07 | 2.64 ± 0.08
313.15 K | 1 ± 0.03 | 1.19 ± 0.04 | 1.32 ± 0.04 | 1.48 ± 0.05 | 1.71 ± 0.05 | 1.88 ± 0.06 | 2 ± 0.06 | 2.11 ± 0.07 | 2.33 ± 0.07
318.15 K | 0.91 ± 0.03 | 1.07 ± 0.03 | 1.18 ± 0.04 | 1.32 ± 0.04 | 1.51 ± 0.05 | 1.66 ± 0.05 | 1.76 ± 0.06 | 1.85 ± 0.06 | 2.03 ± 0.06

CCCCCCCCCCCCCC[P+](CCCCCC)(CCCCCC)CCCCCC.c1c[n-]nn1 + CCCCCCn1cc[n+](C)c1.O=S(=O)([N-]S(=O)(=O)C(F)(F)F)C(F)(F)F
viscosity [mPa·s], 100 kPa
Conditions | 293.15 K | 298.15 K | 303.15 K | 308.15 K | 313.15 K | 318.15 K | 323.15 K
x1 = 0.151 | 159 ± 20 | 122 ± 15 | 96 ± 12 | 77 ± 9 | 62 ± 7 | 51 ± 6 | –
x1 = 0.302 | 268 ± 33 | 200 ± 25 | 152 ± 19 | 119 ± 14 | 94 ± 11 | 76 ± 9 | 62 ± 8
x1 = 0.42 | 402 ± 51 | 294 ± 37 | 219 ± 27 | 168 ± 21 | 131 ± 16 | 104 ± 13 | 84 ± 10
x1 = 0.55 | 498 ± 64 | 358 ± 45 | 262 ± 33 | 197 ± 24 | 151 ± 18 | 118 ± 14 | 94 ± 11
x1 = 0.652 | 614 ± 80 | 437 ± 56 | 317 ± 40 | 236 ± 29 | 180 ± 22 | 139 ± 17 | 109 ± 13
x1 = 0.7 | 725 ± 95 | 511 ± 66 | 369 ± 47 | 274 ± 34 | 206 ± 25 | 159 ± 19 | 125 ± 15
x1 = 0.865 | 744 ± 97 | 527 ± 68 | 382 ± 48 | 284 ± 35 | 215 ± 27 | 166 ± 20 | 131 ± 16

CC12CCC(CC1)C(C)(C)O2 + COC(C)(C)C
298.15 K, 101.33 kPa
Conditions | viscosity [mPa·s]
x2 = 0.039 | 2.365 ± 0.018
x2 = 0.1663 | 1.833 ± 0.013
x2 = 0.2659 | 1.491 ± 0.011
x2 = 0.379 | 1.188 ± 0.0088
x2 = 0.4562 | 1.02 ± 0.0078
x2 = 0.5768 | 0.7958 ± 0.0065
x2 = 0.6621 | 0.6632 ± 0.0059
x2 = 0.7385 | 0.5702 ± 0.0055
x2 = 0.8408 | 0.4604 ± 0.005
x2 = 0.902 | 0.4049 ± 0.0049
x2 = 0.9701 | 0.3547 ± 0.0047

C1C[C@@H]2[C@H]3CC[C@H](C3)[C@@H]2C1 + CCCCO
viscosity [mPa·s], 101 kPa
Conditions | x2 = 0.1697 | x2 = 0.3148 | x2 = 0.4378 | x2 = 0.5481 | x2 = 0.6472 | x2 = 0.7336 | x2 = 0.8102 | x2 = 0.8799 | x2 = 0.9439
293.15 K | 2.796 ± 0.041 | 2.675 ± 0.038 | 2.646 ± 0.036 | 2.66 ± 0.036 | 2.694 ± 0.035 | 2.743 ± 0.035 | 2.807 ± 0.036 | 2.855 ± 0.036 | 2.906 ± 0.036
298.15 K | 2.513 ± 0.036 | 2.397 ± 0.034 | 2.354 ± 0.032 | 2.355 ± 0.032 | 2.372 ± 0.031 | 2.416 ± 0.031 | 2.465 ± 0.031 | 2.505 ± 0.032 | 2.543 ± 0.032
303.15 K | 2.282 ± 0.033 | 2.177 ± 0.031 | 2.128 ± 0.029 | 2.118 ± 0.028 | 2.135 ± 0.028 | 2.165 ± 0.028 | 2.211 ± 0.028 | 2.242 ± 0.028 | 2.272 ± 0.028
313.15 K | 1.882 ± 0.027 | 1.773 ± 0.025 | 1.708 ± 0.024 | 1.685 ± 0.023 | 1.682 ± 0.022 | 1.7 ± 0.022 | 1.719 ± 0.022 | 1.743 ± 0.022 | 1.766 ± 0.022
